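Cultured in 96-well plates, cells were exposed to test compound for 48 hours across five concentrations. GI50 marks 50% less growth.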 Calls of active or inactive are those of the source. No stated cut-off is given here; in the data, active = GI50 up to about 1.1 µM and inactive = higher.
Assays:
Assay in all cases: DTP human tumour cell line panel, 48 h
A498 = tested on: A498
A549 = tested on: A549
BT-549 = tested on: BT-549
EKVX = tested on: EKVX
MDA-MB-231 = tested on: MDA-MB-231
NCI-H522 = tested on: NCI-H522
NCI/ADR-RES = tested on: NCI/ADR-RES
OVCAR-3 = tested on: OVCAR-3
OVCAR-4 = tested on: OVCAR-4
OVCAR-5 = tested on: OVCAR-5
SF-268 = tested on: SF-268
SF-295 = tested on: SF-295
SK-MEL-28 = tested on: SK-MEL-28
SK-MEL-5 = tested on: SK-MEL-5
SW-620 = tested on: SW-620
T47D = tested on: T47D
UO-31 = tested on: UO-31
HCC 2998 = tested on: HCC 2998
SF-539 = tested on: SF-539
SR = tested on: SR

Measured: GI50

COc1ccc(/C=N/Nc2nnc3c(n2)c2ccccc2c2nn(-c4ccccc4Cl)nc23)cc1
inactive: A498 > 100 µM | A549 > 100 µM | BT-549 > 100 µM | EKVX > 100 µM | MDA-MB-231 > 100 µM | NCI-H522 > 100 µM | NCI/ADR-RES > 100 µM | OVCAR-3 > 100 µM | OVCAR-4 > 100 µM | OVCAR-5 > 100 µM | SF-268 > 100 µM | SF-295 > 100 µM | SK-MEL-28 > 100 µM | SK-MEL-5 > 100 µM | SW-620 > 100 µM | T47D > 100 µM | UO-31 > 100 µM

COc1ccc(N2C(=O)CC(C3CC(C(C)(C)C)CCC3=O)C2=O)cc1 (stereo not given)
inactive: A549 > 100 µM | BT-549 > 100 µM | EKVX > 100 µM | HCC 2998 > 100 µM | MDA-MB-231 > 100 µM | NCI-H522 10.7 µM | NCI/ADR-RES > 100 µM | OVCAR-4 > 100 µM | SF-268 > 100 µM | SF-539 > 100 µM | SK-MEL-28 > 100 µM | SK-MEL-5 > 100 µM | SR > 100 µM | SW-620 > 100 µM | T47D > 100 µM | UO-31 > 100 µM

CC12CP(=O)(c3ccccc3)CC1c1ccccc1C2c1ccccc1 (stereo not given)
inactive: A498 27.7 µM | A549 16.4 µM | BT-549 > 10 µM | EKVX 17.9 µM | HCC 2998 17.7 µM | MDA-MB-231 18.5 µM | NCI/ADR-RES 14.2 µM | OVCAR-3 16.7 µM | OVCAR-5 30.9 µM | SF-268 26.1 µM | SF-295 15.6 µM | SF-539 17.8 µM | SK-MEL-28 29.4 µM | SK-MEL-5 19.1 µM | SR 14.3 µM | SW-620 17 µM | T47D 16.4 µM | UO-31 16.7 µM

CC(C)=CCN1CC(C)C(=O)Nc2ccccc21 (stereo not given)
inactive: A498 > 100 µM | A549 > 100 µM | BT-549 > 100 µM | EKVX > 100 µM | HCC 2998 > 100 µM | MDA-MB-231 > 100 µM | NCI-H522 66.8 µM | OVCAR-3 > 100 µM | OVCAR-4 > 100 µM | OVCAR-5 > 100 µM | SF-268 > 100 µM | SF-295 > 100 µM | SF-539 > 100 µM | SK-MEL-28 > 100 µM | SK-MEL-5 42.6 µM | SR > 100 µM | SW-620 > 100 µM | T47D > 100 µM | UO-31 > 100 µM

COc1ccc(Cn2c(=O)c(OS(=O)(=O)C(F)(F)F)c(C)c3cc4ccccc4cc32)cc1
inactive: A549 > 100 µM | BT-549 > 100 µM | EKVX > 100 µM | HCC 2998 > 100 µM | MDA-MB-231 > 100 µM | NCI-H522 > 100 µM | NCI/ADR-RES > 100 µM | OVCAR-3 > 100 µM | OVCAR-4 88.7 µM | OVCAR-5 > 100 µM | SF-268 > 100 µM | SF-295 > 100 µM | SF-539 > 100 µM | SK-MEL-28 > 100 µM | SK-MEL-5 > 100 µM | SR > 100 µM | SW-620 > 100 µM | T47D > 100 µM | UO-31 > 100 µM

CSc1ncnc2c1cnn2CCCCO
inactive: A498 > 100 µM | A549 > 100 µM | BT-549 > 100 µM | EKVX > 100 µM | HCC 2998 > 100 µM | MDA-MB-231 > 100 µM | NCI-H522 > 100 µM | OVCAR-3 > 100 µM | OVCAR-4 > 100 µM | OVCAR-5 > 100 µM | SF-268 > 100 µM | SF-295 > 100 µM | SF-539 > 100 µM | SK-MEL-28 > 100 µM | SK-MEL-5 > 100 µM | SR > 100 µM | SW-620 > 100 µM | T47D > 100 µM | UO-31 > 100 µM

CC(C)=NN/C(=N\c1ccc(Cl)cc1)NS(=O)(=O)c1cc2ccccc2s1
inactive: A549 44 µM | BT-549 41.9 µM | EKVX 12 µM | MDA-MB-231 > 100 µM | NCI-H522 38.5 µM | NCI/ADR-RES 51.1 µM | OVCAR-3 57 µM | OVCAR-4 46.9 µM | OVCAR-5 32.7 µM | SF-268 76.7 µM | SF-295 57.5 µM | SK-MEL-28 > 100 µM | SK-MEL-5 > 100 µM | SW-620 > 100 µM | T47D 21.5 µM | UO-31 30.5 µM

NC1CC(=O)c2cc(Br)sc21 (stereo not given)
inactive: A498 > 100 µM | A549 > 100 µM | BT-549 > 100 µM | EKVX > 100 µM | HCC 2998 > 100 µM | MDA-MB-231 > 100 µM | NCI/ADR-RES > 100 µM | OVCAR-3 > 100 µM | OVCAR-5 > 100 µM | SF-268 > 100 µM | SF-539 > 100 µM | SK-MEL-28 > 100 µM | SK-MEL-5 > 100 µM | SR > 100 µM | SW-620 > 100 µM | T47D > 100 µM | UO-31 > 100 µM

O=C(O)C1Cc2ccccc2OC1=O (stereo not given)
inactive: A549 > 100 µM | BT-549 > 100 µM | EKVX > 100 µM | HCC 2998 > 100 µM | MDA-MB-231 > 100 µM | NCI-H522 > 100 µM | NCI/ADR-RES > 100 µM | OVCAR-3 > 100 µM | OVCAR-5 > 100 µM | SF-268 > 100 µM | SF-295 > 100 µM | SF-539 > 100 µM | SK-MEL-28 > 100 µM | SK-MEL-5 > 100 µM | SR > 100 µM | SW-620 > 100 µM | T47D > 100 µM | UO-31 > 100 µM

N=c1oc2ccc3ccccc3c2cc1C(N)=O
inactive: A498 43.7 µM | A549 64.6 µM | BT-549 89.7 µM | HCC 2998 49.3 µM | MDA-MB-231 25.9 µM | NCI/ADR-RES 35.5 µM | OVCAR-3 72.9 µM | OVCAR-4 58.6 µM | OVCAR-5 > 100 µM | SF-268 31.4 µM | SK-MEL-28 44.5 µM | SK-MEL-5 46.1 µM | SR 34 µM | SW-620 44 µM | T47D 22.6 µM

CC(=O)Nc1ccc2cc(C#N)c(=O)[nH]c2n1
inactive: A498 > 100 µM | A549 > 100 µM | BT-549 > 100 µM | EKVX > 100 µM | HCC 2998 > 100 µM | MDA-MB-231 > 100 µM | NCI-H522 > 100 µM | NCI/ADR-RES > 100 µM | OVCAR-3 > 100 µM | OVCAR-4 > 100 µM | OVCAR-5 > 100 µM | SF-268 > 100 µM | SF-295 > 100 µM | SF-539 > 100 µM | SK-MEL-28 > 100 µM | SK-MEL-5 > 100 µM | SW-620 > 100 µM | T47D > 100 µM | UO-31 > 100 µM

CCCC/C=C/C/C=C/CCCCCCCCC(=O)OCC1CCCN2CCCCC12 (stereo not given)
inactive: A498 > 100 µM | A549 > 100 µM | BT-549 15.6 µM | EKVX 54.6 µM | HCC 2998 > 100 µM | MDA-MB-231 > 100 µM | NCI/ADR-RES > 100 µM | OVCAR-3 > 100 µM | OVCAR-4 79.8 µM | OVCAR-5 > 100 µM | SF-268 > 100 µM | SF-295 > 100 µM | SF-539 > 100 µM | SK-MEL-28 > 100 µM | SK-MEL-5 > 100 µM | SW-620 > 100 µM | T47D 12.8 µM | UO-31 59.4 µM

O=S1(=O)OC(c2ccc(O)cc2)(c2ccc(O)cc2)c2ccccc21 [PHENOLSULFONPHTHALEIN]
inactive: A498 > 100 µM | A549 > 100 µM | BT-549 > 100 µM | EKVX > 100 µM | HCC 2998 > 100 µM | MDA-MB-231 > 100 µM | NCI-H522 > 100 µM | NCI/ADR-RES > 100 µM | OVCAR-3 > 100 µM | OVCAR-4 > 100 µM | OVCAR-5 > 100 µM | SF-268 > 100 µM | SF-295 > 100 µM | SF-539 > 100 µM | SK-MEL-28 > 100 µM | SK-MEL-5 > 100 µM | SW-620 > 100 µM | T47D > 100 µM | UO-31 > 100 µM

O=C1NC(Nc2cccc(Cl)c2)=N/C1=C\c1ccc(Cl)c(Cl)c1
inactive: A498 4.37 µM | A549 3.8 µM | BT-549 12.4 µM | EKVX 3.67 µM | HCC 2998 2.28 µM | NCI-H522 2.52 µM | NCI/ADR-RES 4.04 µM | OVCAR-3 5.14 µM | OVCAR-4 1.9 µM | OVCAR-5 7.91 µM | SF-268 4.94 µM | SF-295 4.05 µM | SF-539 9.31 µM | SK-MEL-28 12.7 µM | SK-MEL-5 6.18 µM | SR 2.82 µM | SW-620 3.68 µM | T47D 3.52 µM | UO-31 7.29 µM

COc1cc2c(c(OC)c1)C(C)=NC(C)C2 (stereo not given)
inactive: A498 > 100 µM | A549 > 100 µM | BT-549 > 100 µM | EKVX > 100 µM | HCC 2998 > 100 µM | MDA-MB-231 > 100 µM | NCI-H522 76.7 µM | SF-268 > 100 µM | SF-295 > 100 µM | SF-539 > 100 µM | SK-MEL-28 > 100 µM | SK-MEL-5 > 100 µM | SR > 100 µM | SW-620 > 100 µM | T47D > 100 µM | UO-31 > 100 µM

Source: ChEMBL document CHEMBL1201862, “PubChem BioAssay data set” (2004)
